# Source: PubChem BioAssay AID2060502 (Molecular Pharmacology Branch, DTP, NCI, 2025)
# Tested on: 885724-159-R-J1-PDC complex spheroid viability
# Assay: Anticancer human tumor 885724-159-R-J1-PDC patient-derived pancreatic adenocarcinoma cell line growth inhibition [GQUAD]
# Conditions: for IC50: curve of first compound; for viability, T/C: stronger effect = lower value
# Summary of the method: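 Tumor cells were grown as complex spheroids with HUVEC endothelial cells and mesenchymal stem cells as stroma. G-quadruplex stabilizers were combined with targeted agents over half-log dilutions from near the clinical Cmax, or from 10 microM.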
# [1] = second compound 0.0316 µM, first compound 0.0316 µM
# [2] = second compound 0.0316 µM, first compound 0.1 µM
# [3] = second compound 0.0316 µM, first compound 0.316 µM
# [4] = second compound 0.0316 µM, first compound 1 µM
# [5] = second compound 0.0316 µM, first compound 3.16 µM
# [6] = second compound 0.0316 µM, first compound 10 µM
# [7] = second compound 0.1 µM, first compound 0.0316 µM
# [8] = second compound 0.1 µM, first compound 0.1 µM
# [9] = second compound 0.1 µM, first compound 0.316 µM
# [10] = second compound 0.1 µM, first compound 1 µM
# [11] = second compound 0.1 µM, first compound 3.16 µM
# [12] = second compound 0.1 µM, first compound 10 µM
# [13] = second compound 0.316 µM, first compound 0.0316 µM
# [14] = second compound 0.316 µM, first compound 0.1 µM
# [15] = second compound 0.316 µM, first compound 0.316 µM
# [16] = second compound 0.316 µM, first compound 1 µM
# [17] = second compound 0.316 µM, first compound 3.16 µM
# [18] = second compound 0.316 µM, first compound 10 µM
# [19] = second compound 1 µM, first compound 0.0316 µM
# [20] = second compound 1 µM, first compound 0.1 µM
# [21] = second compound 1 µM, first compound 0.316 µM
# [22] = second compound 1 µM, first compound 1 µM
# [23] = second compound 1 µM, first compound 3.16 µM
# [24] = second compound 1 µM, first compound 10 µM
# [25] = second compound 3.16 µM, first compound 0.0316 µM
# [26] = second compound 3.16 µM, first compound 0.1 µM
# [27] = second compound 3.16 µM, first compound 0.316 µM
# [28] = second compound 3.16 µM, first compound 1 µM
# [29] = second compound 3.16 µM, first compound 3.16 µM
# [30] = second compound 3.16 µM, first compound 10 µM
# [31] = second compound 10 µM, first compound 0.0316 µM
# [32] = second compound 10 µM, first compound 0.1 µM
# [33] = second compound 10 µM, first compound 0.316 µM
# [34] = second compound 10 µM, first compound 1 µM
# [35] = second compound 10 µM, first compound 3.16 µM
# [36] = second compound 10 µM, first compound 10 µM
# 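Note: spheroids exposed to agents for seven days before readout.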
# 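Throughout, for viability, T/C: percent of vehicle control viability where 100% = DMSO wells.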
structure (smiles),measurement,setting,value
Nc1ccn(C2OC(CO)C(O)C2(F)F)c(=O)n1 (stereo unspecified) + CN(C)c1ccc(Nc2c3ccc(NC(=O)CCN4CCCC4)cc3nc3cc(NC(=O)CCN4CCCC4)ccc23)cc1,IC50,second compound 0.0316 µM,> 10000 nM
same,IC50,second compound 0.1 µM,> 10000 nM
same,IC50,second compound 0.316 µM,> 10000 nM
same,IC50,second compound 1 µM,> 10000 nM
same,IC50,second compound 3.16 µM,1830 nM
same,IC50,second compound 10 µM,> 10000 nM
same,"viability, T/C",[1],79.8%
same,"viability, T/C",[2],90.2%
same,"viability, T/C",[3],71%
same,"viability, T/C",[4],72.9%
same,"viability, T/C",[5],63.8%
same,"viability, T/C",[6],66.3%
same,"viability, T/C",[7],102%
same,"viability, T/C",[8],89.3%
same,"viability, T/C",[9],72.8%
same,"viability, T/C",[10],64.2%
same,"viability, T/C",[11],68.6%
same,"viability, T/C",[12],67%
same,"viability, T/C",[13],89.5%
same,"viability, T/C",[14],77.8%
same,"viability, T/C",[15],74.9%
same,"viability, T/C",[16],56.8%
same,"viability, T/C",[17],74%
same,"viability, T/C",[18],59.8%
same,"viability, T/C",[19],72%
same,"viability, T/C",[20],60.6%
same,"viability, T/C",[21],75%
same,"viability, T/C",[22],51.4%
same,"viability, T/C",[23],65.2%
same,"viability, T/C",[24],50.6%
same,"viability, T/C",[25],76.8%
same,"viability, T/C",[26],64.1%
same,"viability, T/C",[27],60.3%
same,"viability, T/C",[28],47.1%
same,"viability, T/C",[29],52.5%
same,"viability, T/C",[30],44.7%
same,"viability, T/C",[31],72.6%
same,"viability, T/C",[32],63.9%
same,"viability, T/C",[33],47.9%
same,"viability, T/C",[34],61.2%
same,"viability, T/C",[35],52.1%
same,"viability, T/C",[36],52.5%
Cc1[nH]c2ccccc2c1CCNCc1ccc(/C=C/C(=O)NO)cc1 + Cc1cnc(CNC(=O)c2c(=O)c3ccc(N4CCCN(C)CC4)nc3n3c2sc2ccccc23)cn1,IC50,second compound 0.0316 µM,291 nM
same,IC50,second compound 0.1 µM,241 nM
same,IC50,second compound 0.316 µM,193 nM
same,IC50,second compound 1 µM,137 nM
same,IC50,second compound 3.16 µM,93.5 nM
same,IC50,second compound 10 µM,23.8 nM
same,"viability, T/C","second compound 0.0316 µM, first compound 0.000999 µM",111%
same,"viability, T/C","second compound 0.0316 µM, first compound 0.00316 µM",103%
same,"viability, T/C","second compound 0.0316 µM, first compound 0.00999 µM",89.7%
same,"viability, T/C",[1],95.4%
same,"viability, T/C","second compound 0.0316 µM, first compound 0.0999 µM",97.5%
same,"viability, T/C",[3],46.4%
same,"viability, T/C","second compound 0.1 µM, first compound 0.000999 µM",100%
same,"viability, T/C","second compound 0.1 µM, first compound 0.00316 µM",114%
same,"viability, T/C","second compound 0.1 µM, first compound 0.00999 µM",117%
same,"viability, T/C",[7],98.8%
same,"viability, T/C","second compound 0.1 µM, first compound 0.0999 µM",67.2%
same,"viability, T/C",[9],44.7%
same,"viability, T/C","second compound 0.316 µM, first compound 0.000999 µM",107%
same,"viability, T/C","second compound 0.316 µM, first compound 0.00316 µM",103%
same,"viability, T/C","second compound 0.316 µM, first compound 0.00999 µM",102%
same,"viability, T/C",[13],83.1%
same,"viability, T/C","second compound 0.316 µM, first compound 0.0999 µM",72.8%
same,"viability, T/C",[15],34.5%
same,"viability, T/C","second compound 1 µM, first compound 0.000999 µM",90%
same,"viability, T/C","second compound 1 µM, first compound 0.00316 µM",78.6%
same,"viability, T/C","second compound 1 µM, first compound 0.00999 µM",75.8%
same,"viability, T/C",[19],71.5%
same,"viability, T/C","second compound 1 µM, first compound 0.0999 µM",53.5%
same,"viability, T/C",[21],37%
same,"viability, T/C","second compound 3.16 µM, first compound 0.000999 µM",79.3%
same,"viability, T/C","second compound 3.16 µM, first compound 0.00316 µM",72.5%
same,"viability, T/C","second compound 3.16 µM, first compound 0.00999 µM",68%
same,"viability, T/C",[25],63.6%
same,"viability, T/C","second compound 3.16 µM, first compound 0.0999 µM",49.3%
same,"viability, T/C",[27],30.6%
same,"viability, T/C","second compound 10 µM, first compound 0.000999 µM",69.1%
same,"viability, T/C","second compound 10 µM, first compound 0.00316 µM",73.7%
same,"viability, T/C","second compound 10 µM, first compound 0.00999 µM",56.9%
same,"viability, T/C",[31],46.1%
same,"viability, T/C","second compound 10 µM, first compound 0.0999 µM",35.4%
same,"viability, T/C",[33],23.8%
COc1ncnc(C2CC2)c1-c1ncc2cnn(Cc3ccc(-c4nc(C(F)(F)F)cn4C(C)C)cc3)c2n1 + Cc1[nH]c2ccc(F)cc2c1-c1nc2c3cccnc3c3ncccc3c2[nH]1,IC50,second compound 0.0316 µM,> 10000 nM
same,IC50,second compound 0.1 µM,> 10000 nM
same,IC50,second compound 0.316 µM,> 10000 nM
same,IC50,second compound 1 µM,> 10000 nM
same,IC50,second compound 3.16 µM,< 31.6 nM
same,IC50,second compound 10 µM,> 10000 nM
same,"viability, T/C",[1],85.5%
same,"viability, T/C",[2],91.4%
same,"viability, T/C",[3],93.7%
same,"viability, T/C",[4],81.8%
same,"viability, T/C",[5],89.9%
same,"viability, T/C",[6],94%
same,"viability, T/C",[7],101%
same,"viability, T/C",[8],90%
same,"viability, T/C",[9],86.3%
same,"viability, T/C",[10],90.4%
same,"viability, T/C",[11],91.3%
same,"viability, T/C",[12],111%
same,"viability, T/C",[13],96.7%
same,"viability, T/C",[14],81.5%
same,"viability, T/C",[15],76.1%
same,"viability, T/C",[16],72.3%
same,"viability, T/C",[17],88%
same,"viability, T/C",[18],82.3%
same,"viability, T/C",[19],70.3%
same,"viability, T/C",[20],65.8%
same,"viability, T/C",[21],62.8%
same,"viability, T/C",[22],56.3%
same,"viability, T/C",[23],70.5%
same,"viability, T/C",[24],67.8%
same,"viability, T/C",[25],23.7%
same,"viability, T/C",[26],12.7%
same,"viability, T/C",[27],10.7%
same,"viability, T/C",[28],8.78%
same,"viability, T/C",[29],11.8%
same,"viability, T/C",[30],12.8%
same,"viability, T/C",[31],69.6%
same,"viability, T/C",[32],66%
same,"viability, T/C",[33],63.7%
same,"viability, T/C",[34],72.1%
same,"viability, T/C",[35],69.3%
same,"viability, T/C",[36],68.3%
